In ChEMBL document CHEMBL4602688, “Bromopyrrole Alkaloids of the Sponge Agelas oroides Collected Near the Israeli Mediterranean Coastline” (J Nat Prod, 2020):

Experiments:
Type in all cases: functional, organism-based
[1] = tested on: Pseudomonas aeruginosa; experiment: Antibiofilm activity against Pseudomonas aeruginosa PAO1 assessed as inhibition of biofilm formation incubated for 24 hrs by crystal violet staining based assay; conditions: PAO1, 24 h
[2] = tested on: Kocuria; experiment: Antibiofilm activity against Kocuria isolate Eys10 assessed as inhibition of biofilm formation incubated for 24 hrs by crystal violet staining based assay; conditions: isolate Eys10, 24 h
[3] = tested on: Pseudomonas sp.; experiment: Growth inhibition of Pseudomonas sp. isolate ISP2_A10pp after 24 hrs
[4] = tested on: Pseudomonas sp. NB86; experiment: Growth inhibition of Pseudomonas sp. NB86 after 24 hrs; conditions: Pseudomonas sp. NB86, 24 h
[5] = tested on: Pseudomonas sp.; experiment: Antibiofilm activity against Pseudomonas sp. isolate ISP2_Ab assessed as inhibition of biofilm formation incubated for 24 hrs by crystal violet staining based assay
[6] = tested on: Pseudomonas sp. NB86; experiment: Antibiofilm activity against Pseudomonas sp. NB86 assessed as inhibition of biofilm formation incubated for 24 hrs by crystal violet staining based assay; conditions: Pseudomonas sp. NB86, 24 h
[7] = tested on: Pseudomonas sp.; experiment: Antibiofilm activity against Pseudomonas sp. isolate ISP2_A10pp assessed as inhibition of biofilm formation incubated for 24 hrs by crystal violet staining based assay
[8] = tested on: Lysinibacillus; experiment: Antibiofilm activity against Lysinibacillus isolate Eys09 assessed as inhibition of biofilm formation incubated for 24 hrs by crystal violet staining based assay; conditions: isolate Eys09, 24 h
[9] = tested on: Pseudomonas sp.; experiment: Growth inhibition of Pseudomonas sp. isolate ISP2_16 after 24 hrs; conditions: isolate ISP2_16, 24 h
[10] = tested on: Kocuria; experiment: Growth inhibition of Kocuria isolate Eys10 after 24 hrs; conditions: isolate Eys10, 24 h
[11] = tested on: Lysinibacillus; experiment: Growth inhibition of Lysinibacillus isolate Eys09 after 24 hrs; conditions: isolate Eys09, 24 h
[12] = tested on: Pseudomonas sp.; experiment: Growth inhibition of Pseudomonas sp. isolate ISP2_Ab after 24 hrs
[13] = tested on: Sporosarcina sp. NB90; experiment: Growth inhibition of Sporosarcina sp. NB90 after 24 hrs; conditions: Sporosarcina sp. NB90, 24 h
[14] = tested on: Pseudomonas sp.; experiment: Antibiofilm activity against Pseudomonas sp. isolate ISP2_16 assessed as inhibition of biofilm formation incubated for 24 hrs by crystal violet staining based assay; conditions: isolate ISP2_16, 24 h
[15] = tested on: Bacillus sp.; experiment: Growth inhibition of Bacillus sp. isolate ISP2_A_B after 24 hrs; conditions: Bacillus sp. (in: firmicutes)

Structure (SMILES) | IC50 [1] | IC50 [2] | IC50 [3] | IC50 [4] | IC50 [5] | IC50 [6] | IC50 [7] | IC50 [8] | IC50 [9] | IC50 [10] | IC50 [11] | IC50 [12] | IC50 [13] | IC50 [14] | IC50 [15]
NC(=O)c1cc(Br)c(Br)[nH]1 | 15 µM |  |  |  |  |  |  |  |  |  |  |  |  |  | 
Nc1nc2c([nH]1)c1c(c3[nH]c(N)nc32)[C@H](CNC(=O)c2cc(Br)c(Br)[nH]2)[C@H]1CNC(=O)c1cc(Br)c(Br)[nH]1 [BENZOSCEPTRIN C] | 10 µM |  |  |  |  |  |  |  |  |  |  |  |  |  | 
Nc1ncc(/C=C/CNC(=O)c2cc(Br)c(Br)[nH]2)[nH]1 [OROIDIN] | 5.1 µM | 10 µM | 150 µM | 330 µM | 3.9 µM | 57 µM | 10 µM | 7.7 µM | 170 µM | 51 µM | 77 µM | 310 µM | 31 µM | 39 µM | 39 µM
